Laboratory results as given in article PMC8162404, “Proteomimetic surface fragments distinguish targets by function” (Chemical Science, 2020).
Read-outs that look alike come from different tables or passages of the source.

Tests used:
[1] = target: T1, S100B (Homo sapiens, UniProt P04271); test: Pull-down assay with immobilized protein and LSM libraries; format: binding; details: 1:1 binding assumed, read-out: Surface mapping KD (apparent)
T1 construct: made in house; host or cells: Escherichia coli BL21(DE3)
T1 sequence (P04271 1-92): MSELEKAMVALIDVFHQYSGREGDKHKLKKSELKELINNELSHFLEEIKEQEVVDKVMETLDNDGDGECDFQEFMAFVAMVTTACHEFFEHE
Summary of the method: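 Buffers were HEPES pH 7.4 with 150 mM NaCl, plus 1 mM TCEP and 1 mM CaCl2 (50 mM HEPES) for S100A4 and S100B, 1 mM TCEP for Gal-1, and no additive for RecQ-WH. Immobilized protein at 64 µM was equilibrated 30 min with the LSM sublibrary, and unbound probes were measured by LC-MS.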

[2] = target: T2, Gal-1 (Homo sapiens, UniProt P09382); test: as above; format: binding; details: H12 library; 1:1 binding assumed; read-out: Surface mapping KD (apparent)
T2 construct: made in house; host or cells: E. coli BL21(DE3)
Summary of the method: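 His-tagged protein immobilized on Co-NTA resin (64 µM) in 20 mM HEPES pH 7.4, 150 mM NaCl, equilibrated 30 min at room temperature with foldamer LSM sublibraries at equimolar total concentration. Unbound fractions quantified by HPLC-MS versus protein-free resin control; apparent KD assumes 1:1 binding.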

T2 sequence (P09382 whole entry): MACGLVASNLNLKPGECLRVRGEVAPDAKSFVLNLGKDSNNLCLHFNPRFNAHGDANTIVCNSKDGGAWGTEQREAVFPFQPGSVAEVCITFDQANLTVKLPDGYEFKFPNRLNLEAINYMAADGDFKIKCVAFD

Kd ([1]; H12 library) [µM] | Kd [2] [µM] | Kd ([1]; H14 library) [µM] | SMILES
114 | 428 | – | C[C@@H](CC(=O)N[C@H]1CCC[C@@H]1C(=O)N[C@H]1CCC[C@@H]1C(=O)N[C@H](CC(=O)N[C@H]1CCC[C@@H]1C(=O)N[C@H]1CCC[C@@H]1C(N)=O)Cc1ccccc1)NC(=O)[C@H]1CCC[C@@H]1NC(=O)[C@H]1CCC[C@@H]1N [H12 AF]
348 | 436 | – | CC[C@H](C)[C@@H](CC(=O)N[C@H]1CCC[C@@H]1C(=O)N[C@H]1CCC[C@@H]1C(N)=O)NC(=O)[C@H]1CCC[C@@H]1NC(=O)[C@H]1CCC[C@@H]1NC(=O)C[C@H](C)NC(=O)[C@H]1CCC[C@@H]1NC(=O)[C@H]1CCC[C@@H]1N [H12 AI]
380 | 303 | – | C[C@@H](CC(=O)N[C@H]1CCC[C@@H]1C(=O)N[C@H]1CCC[C@@H]1C(=O)N[C@@H](CCCCN)CC(=O)N[C@H]1CCC[C@@H]1C(=O)N[C@H]1CCC[C@@H]1C(N)=O)NC(=O)[C@H]1CCC[C@@H]1NC(=O)[C@H]1CCC[C@@H]1N [H12 AK]
348 | 436 | – | CC(C)C[C@@H](CC(=O)N[C@H]1CCC[C@@H]1C(=O)N[C@H]1CCC[C@@H]1C(N)=O)NC(=O)[C@H]1CCC[C@@H]1NC(=O)[C@H]1CCC[C@@H]1NC(=O)C[C@H](C)NC(=O)[C@H]1CCC[C@@H]1NC(=O)[C@H]1CCC[C@@H]1N [H12 AL]
318 | 422 | – | C[C@@H](CC(=O)N[C@H]1CCC[C@@H]1C(=O)N[C@H]1CCC[C@@H]1C(=O)N[C@H](CC(=O)N[C@H]1CCC[C@@H]1C(=O)N[C@H]1CCC[C@@H]1C(N)=O)Cc1ccc(O)cc1)NC(=O)[C@H]1CCC[C@@H]1NC(=O)[C@H]1CCC[C@@H]1N [H12 AY]
371 | 251 | – | NC(=O)[C@H]1CCC[C@@H]1NC(=O)[C@H]1CCC[C@@H]1NC(=O)C[C@H](CC(=O)O)NC(=O)[C@H]1CCC[C@@H]1NC(=O)[C@H]1CCC[C@@H]1NC(=O)C[C@H](Cc1ccccc1)NC(=O)[C@H]1CCC[C@@H]1NC(=O)[C@H]1CCC[C@@H]1N [H12 FD]
391 | 198 | – | NC(=O)[C@H]1CCC[C@@H]1NC(=O)[C@H]1CCC[C@@H]1NC(=O)C[C@H](CCC(=O)O)NC(=O)[C@H]1CCC[C@@H]1NC(=O)[C@H]1CCC[C@@H]1NC(=O)C[C@H](Cc1ccccc1)NC(=O)[C@H]1CCC[C@@H]1NC(=O)[C@H]1CCC[C@@H]1N [H12 FE]
109 | 226 | – | NC(=O)C[C@@H](CC(=O)N[C@H]1CCC[C@@H]1C(=O)N[C@H]1CCC[C@@H]1C(N)=O)NC(=O)[C@H]1CCC[C@@H]1NC(=O)[C@H]1CCC[C@@H]1NC(=O)C[C@H](Cc1ccccc1)NC(=O)[C@H]1CCC[C@@H]1NC(=O)[C@H]1CCC[C@@H]1N [H12 FN]
104 | 208 | – | NC(=O)CC[C@@H](CC(=O)N[C@H]1CCC[C@@H]1C(=O)N[C@H]1CCC[C@@H]1C(N)=O)NC(=O)[C@H]1CCC[C@@H]1NC(=O)[C@H]1CCC[C@@H]1NC(=O)C[C@H](Cc1ccccc1)NC(=O)[C@H]1CCC[C@@H]1NC(=O)[C@H]1CCC[C@@H]1N [H12 FQ]
310 | 268 | – | NC(=O)[C@H]1CCC[C@@H]1NC(=O)[C@H]1CCC[C@@H]1NC(=O)C[C@H](CO)NC(=O)[C@H]1CCC[C@@H]1NC(=O)[C@H]1CCC[C@@H]1NC(=O)C[C@H](Cc1ccccc1)NC(=O)[C@H]1CCC[C@@H]1NC(=O)[C@H]1CCC[C@@H]1N [H12 FS]
86 | 254 | – | C[C@@H](O)[C@@H](CC(=O)N[C@H]1CCC[C@@H]1C(=O)N[C@H]1CCC[C@@H]1C(N)=O)NC(=O)[C@H]1CCC[C@@H]1NC(=O)[C@H]1CCC[C@@H]1NC(=O)C[C@H](Cc1ccccc1)NC(=O)[C@H]1CCC[C@@H]1NC(=O)[C@H]1CCC[C@@H]1N [H12 FT]
254 | 469 | – | CC[C@H](C)[C@@H](CC(=O)N[C@H]1CCC[C@@H]1C(=O)N[C@H]1CCC[C@@H]1C(=O)N[C@@H](C)CC(=O)N[C@H]1CCC[C@@H]1C(=O)N[C@H]1CCC[C@@H]1C(N)=O)NC(=O)[C@H]1CCC[C@@H]1NC(=O)[C@H]1CCC[C@@H]1N [H12 IA]
360 | 485 | – | CC[C@H](C)[C@@H](CC(=O)N[C@H]1CCC[C@@H]1C(=O)N[C@H]1CCC[C@@H]1C(=O)N[C@@H](CO)CC(=O)N[C@H]1CCC[C@@H]1C(=O)N[C@H]1CCC[C@@H]1C(N)=O)NC(=O)[C@H]1CCC[C@@H]1NC(=O)[C@H]1CCC[C@@H]1N [H12 IS]
149 | 289 | – | NCCCC[C@@H](CC(=O)N[C@H]1CCC[C@@H]1C(=O)N[C@H]1CCC[C@@H]1C(=O)N[C@@H](CC(=O)O)CC(=O)N[C@H]1CCC[C@@H]1C(=O)N[C@H]1CCC[C@@H]1C(N)=O)NC(=O)[C@H]1CCC[C@@H]1NC(=O)[C@H]1CCC[C@@H]1N [H12 KD]
177 | 230 | – | NCCCC[C@@H](CC(=O)N[C@H]1CCC[C@@H]1C(=O)N[C@H]1CCC[C@@H]1C(N)=O)NC(=O)[C@H]1CCC[C@@H]1NC(=O)[C@H]1CCC[C@@H]1NC(=O)C[C@H](CCCCN)NC(=O)[C@H]1CCC[C@@H]1NC(=O)[C@H]1CCC[C@@H]1N [H12 KK]
153 | 282 | – | CSCC[C@@H](CC(=O)N[C@H]1CCC[C@@H]1C(=O)N[C@H]1CCC[C@@H]1C(N)=O)NC(=O)[C@H]1CCC[C@@H]1NC(=O)[C@H]1CCC[C@@H]1NC(=O)C[C@H](CCCCN)NC(=O)[C@H]1CCC[C@@H]1NC(=O)[C@H]1CCC[C@@H]1N [H12 KM]
300 | 293 | – | NCCCC[C@@H](CC(=O)N[C@H]1CCC[C@@H]1C(=O)N[C@H]1CCC[C@@H]1C(=O)N[C@@H](CCC(N)=O)CC(=O)N[C@H]1CCC[C@@H]1C(=O)N[C@H]1CCC[C@@H]1C(N)=O)NC(=O)[C@H]1CCC[C@@H]1NC(=O)[C@H]1CCC[C@@H]1N [H12 KQ]
224 | 298 | – | NCCCC[C@@H](CC(=O)N[C@H]1CCC[C@@H]1C(=O)N[C@H]1CCC[C@@H]1C(=O)N[C@@H](CO)CC(=O)N[C@H]1CCC[C@@H]1C(=O)N[C@H]1CCC[C@@H]1C(N)=O)NC(=O)[C@H]1CCC[C@@H]1NC(=O)[C@H]1CCC[C@@H]1N [H12 KS]
193 | 221 | – | CC(C)[C@@H](CC(=O)N[C@H]1CCC[C@@H]1C(=O)N[C@H]1CCC[C@@H]1C(N)=O)NC(=O)[C@H]1CCC[C@@H]1NC(=O)[C@H]1CCC[C@@H]1NC(=O)C[C@H](CCCCN)NC(=O)[C@H]1CCC[C@@H]1NC(=O)[C@H]1CCC[C@@H]1N [H12 KV]
138 | 227 | – | NCCCC[C@@H](CC(=O)N[C@H]1CCC[C@@H]1C(=O)N[C@H]1CCC[C@@H]1C(=O)N[C@H](CC(=O)N[C@H]1CCC[C@@H]1C(=O)N[C@H]1CCC[C@@H]1C(N)=O)Cc1ccc(O)cc1)NC(=O)[C@H]1CCC[C@@H]1NC(=O)[C@H]1CCC[C@@H]1N [H12 KY]
293 | 438 | – | CC(C)C[C@@H](CC(=O)N[C@H]1CCC[C@@H]1C(=O)N[C@H]1CCC[C@@H]1C(=O)N[C@@H](C)CC(=O)N[C@H]1CCC[C@@H]1C(=O)N[C@H]1CCC[C@@H]1C(N)=O)NC(=O)[C@H]1CCC[C@@H]1NC(=O)[C@H]1CCC[C@@H]1N [H12 LA]
264 | 423 | – | CC(C)C[C@@H](CC(=O)N[C@H]1CCC[C@@H]1C(=O)N[C@H]1CCC[C@@H]1C(=O)N[C@@H](CC(N)=O)CC(=O)N[C@H]1CCC[C@@H]1C(=O)N[C@H]1CCC[C@@H]1C(N)=O)NC(=O)[C@H]1CCC[C@@H]1NC(=O)[C@H]1CCC[C@@H]1N [H12 LN]
348 | 446 | – | CC(C)C[C@@H](CC(=O)N[C@H]1CCC[C@@H]1C(=O)N[C@H]1CCC[C@@H]1C(=O)N[C@@H](CCC(N)=O)CC(=O)N[C@H]1CCC[C@@H]1C(=O)N[C@H]1CCC[C@@H]1C(N)=O)NC(=O)[C@H]1CCC[C@@H]1NC(=O)[C@H]1CCC[C@@H]1N [H12 LQ]
224 | 194 | – | CSCC[C@@H](CC(=O)N[C@H]1CCC[C@@H]1C(=O)N[C@H]1CCC[C@@H]1C(=O)N[C@@H](C)CC(=O)N[C@H]1CCC[C@@H]1C(=O)N[C@H]1CCC[C@@H]1C(N)=O)NC(=O)[C@H]1CCC[C@@H]1NC(=O)[C@H]1CCC[C@@H]1N [H12 MA]
253 | – | – | C[C@@H](O)[C@@H](CC(=O)N[C@H]1CCC[C@@H]1C(=O)N[C@H]1CCC[C@@H]1C(=O)N[C@@H](CCCCN)CC(=O)N[C@H]1CCC[C@@H]1C(=O)N[C@H]1CCC[C@@H]1C(N)=O)NC(=O)[C@H]1CCC[C@@H]1NC(=O)[C@H]1CCC[C@@H]1N [H12 TK]
– | – | 193 | N=C(N)NCCC[C@@H](CC(=O)N[C@H]1CCCC[C@@H]1C(N)=O)NC(=O)[C@H]1CCCC[C@@H]1NC(=O)[C@H]1CCCC[C@@H]1NC(=O)C[C@H](CC(=O)O)NC(=O)[C@H]1CCCC[C@@H]1N [H14 DR]
– | – | 461 | NC(=O)[C@H]1CCCC[C@@H]1NC(=O)C[C@H](Cc1ccc(O)cc1)NC(=O)[C@H]1CCCC[C@@H]1NC(=O)[C@H]1CCCC[C@@H]1NC(=O)C[C@H](CC(=O)O)NC(=O)[C@H]1CCCC[C@@H]1N [H14 DY]
– | – | 324 | NCCCC[C@@H](CC(=O)N[C@H]1CCCC[C@@H]1C(N)=O)NC(=O)[C@H]1CCCC[C@@H]1NC(=O)[C@H]1CCCC[C@@H]1NC(=O)C[C@H](CCC(=O)O)NC(=O)[C@H]1CCCC[C@@H]1N [H14 EK]
– | – | 349 | N=C(N)NCCC[C@@H](CC(=O)N[C@H]1CCCC[C@@H]1C(N)=O)NC(=O)[C@H]1CCCC[C@@H]1NC(=O)[C@H]1CCCC[C@@H]1NC(=O)C[C@H](CCC(=O)O)NC(=O)[C@H]1CCCC[C@@H]1N [H14 ER]
– | – | 324 | NCCCC[C@@H](CC(=O)N[C@H]1CCCC[C@@H]1C(=O)N[C@H]1CCCC[C@@H]1C(=O)N[C@@H](CCC(=O)O)CC(=O)N[C@H]1CCCC[C@@H]1C(N)=O)NC(=O)[C@H]1CCCC[C@@H]1N [H14 KE]
